In patent US9370541B2, “Extract of the above-ground portions of gynandropsis gynandra or cleome gynandra, and cosmetic, dermatological or pharmaceutical compositions including same” (LABORATOIRES EXPANSCIENCE, priority 2010, dated 2016):

How the values were obtained:
[1] = test system: Cells of the Jurkat cell line; assay: UV-induced lipid peroxidation (flow cytometry); type: cell-based; details: 100 μM BHT; UVA+B irradiation
Description: Cells of the Jurkat cell line were preincubated for 45 minutes in the presence of the extract of Gynandropsis gynandra (GG) at a concentration of 0.02% (w/v of active material) or 100 μM of BHT (reference) and in the presence of the fluorescent probe 011-fluorine, specific for lipid peroxidation.
The cells were then irradiated by UVA+B and then incubated for 30 minutes in the presence of GG or BHT.
At the end of incubation, the quantity of lipid peroxides was evaluated by a flow cytometry analysis of fluorescence intensity (inversely proportional to oxidation).
(§1) The results were analyzed statistically by a Student's t-test.

Mastocytes = assay: Release of histamine by mastocytes stimulated by substance P, ELISA; type: cell-based; details: 10 nM Calcium; 10 μM substance P, 15 minutes
Description: Mastocytes were preincubated for 30 minutes in the presence of the extract of Gynandropsis gynandra (GG) at a concentration of 0.08% (w/v of active material) or 10 Mm of calcium (reference inhibitor of histamine release).
The mastocytes were then stimulated with 10 μM of substance P for 15 minutes. At the end of incubation, the histamine released was quantified by ELISA.
as §1

interleukin 8 (IL8) = assay: Production of IL8 by PMA-stimulated keratinocytes (NCTC-2544), ELISA; type: cell-based, Human; details: 10^−7 M Dexamethasone, 0.1 μg/ml PMA 24 hours
Description: At the end of the treatment, the quantities of interleukin 8 (IL8) and prostaglandin E2 (PGE2) secreted were measured by ELISA in the culture supernatants. The results were analyzed statistically by a Student's t-test.

prostaglandin E2 (PGE2) = assay: Production of PGE2 by PMA-stimulated keratinocytes (NCTC-2544), ELISA; type: cell-based, Human; details: 10^−6 M Indomethacin, 0.1 μg/ml PMA 24 hours
Normal human adipocytes = assay: Lipogenesis in adipocytes ([14C]-acetate incorporation); type: cell-based; details: 20 μM of cerulenin
Description: Normal human adipocytes were incubated for 1 hour in the presence of the extract of Gynandropsis gynandra (GG) at a concentration of 0.02% (w/v of active material) or the reference (20 μM of cerulenin). After incubation, the radioactive label [^14C]-acetate was added and the samples were incubated overnight.
At the end of incubation, the lipids were extracted and the radioactivity incorporated (corresponding to the lipogenesis) was measured by liquid scintillation.
as §1

[2] = test system: Normal human keratinocytes; assay: Production of ROS in keratinocytes treated with H2O2 (H2DCF-DA probe); type: cell-based; details: 10 μg/ml vitamin C, 24 hours, 100 μM H2O2, 20 minutes
Description: The keratinocytes were then stimulated with 100 μM of hydrogen peroxide (H2O2) for 20 minutes. The production of reactive oxygen species (ROS) was evaluated by measuring fluorescence. The results were analyzed statistically by a Student's t-test.

[3] = test system: Normal human keratinocytes; assay: Keratinocyte migration after artificial wound; type: cell-based; details: 10 ng/ml of EGF
Description: An artificial wound was prepared on a monolayer of normal human keratinocytes.
At 0, 24, 48 and 72 hours, keratinocyte migration was monitored by microphotography and was quantified by measuring the surface area of the wound.
as §1

[4] = test system: Normal human epidermal melanocytes; assay: Melanin production by melanocytes; type: cell-based; details: 10^−7 M NDP-MSH alone (stimulated control); 240 hours
Description: After incubation, melanin was extracted from the cells and was quantified by spectrophotometry.
as §1

Q: What does the source list for `Cc1cc(C(C)(C)C)c(O)c(C(C)(C)C)c1` [BHT]?
A: Lipid peroxides (% of irradiated control) [1]: 64 % of irradiated control; Protection (%) [1]: 49% p < 0.01

Q: Which “Histamine” value (Mastocytes) does the source give for `[Ca+2]` [Calcium, calcium] here?
A: The value was 21.8 ± 1.0 ng/mL.

Q: And the “Inhibition of histamine release” value (Mastocytes)?
A: The value was −85% p < 0.01.

Q: `C[C@@H]1C[C@H]2[C@@H]3CCC4=CC(=O)C=C[C@]4(C)[C@@]3(F)[C@@H](O)C[C@]2(C)[C@@]1(O)C(=O)CO` [Dexamethasone, dexamethasone] was tested. Which “IL8” value (interleukin 8 (IL8)) did it give?
A: Its value is 7.4 ± 0.8 ng/mL.

Q: What about the inhibition at 0.1 µM (interleukin 8 (IL8); Homo sapiens, NCTC-2544) of the same molecule?
A: The inhibition at 0.1 µM was 85%.

Q: Which results are given for `COc1ccc2c(c1)c(CC(=O)O)c(C)n2C(=O)c1ccc(Cl)cc1` [Indomethacin, indomethacin]?
A: PGE2 (prostaglandin E2 (PGE2)): 0.039 ± 0.0 ng/mL; inhibition at 1 µM (prostaglandin E2 (PGE2); Homo sapiens, NCTC-2544): 100%

Q: `C/C=C/C/C=C/CCC(=O)[C@H]1O[C@H]1C(N)=O` [cerulenin] was tested. Which “Incorporation of acetate (cpm)” value (Normal human adipocytes) did it give?
A: Its value is 14934 ± 671 cpm.

Q: What about the inhibition at 20 µM (Normal human adipocytes; Homo sapiens, Adipocyte) of the same molecule?
A: The inhibition at 20 µM was 55%.

Q: Which results are given for `O=C1O[C@H]([C@@H](O)CO)C(O)=C1O` [vitamin C]?
A: ROS (fluorescence units) [2]: 992.83 ± 93.96 fluorescence units; inhibition at 10 µg/mL ([2]; Homo sapiens, Keratinocyte): 33%

Q: How did the “Migration area (percent of wound covered)” value ([3]; 48 h) turn out when EGF was run?
A: Its value is 99 (p < 0.001) percent of wound covered.

Q: And the “Migration area (percent of wound covered)” value ([3]; 72 h)?
A: The value was 100 (p < 0.001) percent of wound covered.

Q: Which “Melanin (μl/ml)” value [4] does the source give for NDP-MSH here?
A: Its value is 27.1 ± 0.9 μl/ml.

Q: What about the “Stimulation of melanin production” value [4] of the same molecule?
A: The value was “+108% p < 0.001”.
